This note sets out measurements from PubChem BioAssay (NCI).

“And” between values parts separate entries of the source, which are not always exact repeats. Equal entries are not always repeated.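 Tested at 5 concentrations; 48 h exposure; 96-well plates; endpoints linearly interpolated, else capped at highest concentration. GI50 marks 50% less growth. TGI: concentration producing complete growth inhibition.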

Among the test systems are A498 renal; CAKI-1 renal; SN12C renal; A549 NSCLC; K-562 leukemia; KM12 colon; UO-31 renal; NCI-H460 lung; SF-539 CNS; M14 melanoma.
Holding throughout (assay): inhibition of tumour cell growth, NCI panel, 48 h

As to `COc1ccc2c(c1)C(=O)c1c-2c(=O)n(CCCN(C)C)c2cc(OC)c(OC)cc12`, the GI50 in the test on A498 renal is 15 µM; in the test with CAKI-1 renal it was 1.48 µM; with SN12C renal, 2.18 µM; in the test with A549 NSCLC it was 7.03 µM; in the test with K-562 leukemia, 4.75 µM; in the test on KM12 colon, 5.73 µM. The GI50 in the test with UO-31 renal is 3.4 µM; with NCI-H460 lung it was 0.273 µM; with SF-539 CNS, 3.61 µM; with M14 melanoma, 6.65 µM. Also, the TGI in the test with A498 renal was more than 100 µM; in the test with CAKI-1 renal, more than 100 µM; with SN12C renal, 16.6 µM; in the test with A549 NSCLC, 22 µM; in the test with K-562 leukemia it was 24 µM; in the test on KM12 colon it was 19.8 µM. Moreover, the TGI in the test on UO-31 renal stood at 16.1 µM; with NCI-H460 lung, 11.4 µM; in the test on SF-539 CNS, 14.9 µM; in the test on M14 melanoma it was 21.7 µM.
As to `CC1(C)[C@H](O)[C@H](F)C[C@@]2(C)Oc3ccc(C(=O)Nc4ccc5c(c4)NC(=O)C54CCN(CCCCC#N)CC4)cc3C[C@H]12`, the GI50 in the test on A498 renal is 0.0341 µM; in the test with SN12C renal, 11.7 µM; in the test on K-562 leukemia, 0.0573 µM and 0.012 µM; in the test on KM12 colon, 0.463 µM and 0.707 µM; with UO-31 renal it was 0.456 µM and 0.558 µM; with NCI-H460 lung, 0.0653 µM. Further, the GI50 in the test on SF-539 CNS was 0.00698 µM; in the test on M14 melanoma, 0.606 µM and 1.06 µM. In addition, the TGI in the test with A498 renal is 0.548 µM; with CAKI-1 renal it was 38.5 µM; in the test on SN12C renal, 42.4 µM; in the test with A549 NSCLC, 8.4 µM; in the test with K-562 leukemia it was 4.81 µM and 1.48 µM; in the test on KM12 colon it was 9.79 µM and 11.9 µM. Further, the TGI was 8.32 µM and 11.4 µM with UO-31 renal; 10.9 µM in the test with NCI-H460 lung; 4.77 µM and 2.5 µM in the test with SF-539 CNS; 4.97 µM and 3.79 µM in the test with M14 melanoma.
For the compound `O=[N+]([O-])c1cc(Cc2cc([N+](=O)[O-])c3cccnc3c2O)c(O)c2ncccc12`, the TGI in the test on A498 renal is 31.8 µM; in the test with CAKI-1 renal it was 41.3 µM; in the test on SN12C renal it was more than 65.3 µM; in the test on A549 NSCLC, 30.8 µM; with K-562 leukemia, more than 100 µM; in the test with KM12 colon it was 25.8 µM. In addition, the TGI is 21.8 µM in the test on UO-31 renal, 9.4 µM in the test on NCI-H460 lung, more than 96 µM in the test on SF-539 CNS and 30.1 µM with M14 melanoma.
As for `COc1ccc(C2CC(c3ccc(N(C)C)cc3)=NN2c2ccc(S(N)(=O)=O)cc2)cc1` (configuration not stated), the GI50 in the test on A498 renal is 2.15 µM; with CAKI-1 renal, 3.35 µM; in the test on SN12C renal, 2.15 µM; with A549 NSCLC it was 3.16 µM; in the test on K-562 leukemia, 3.8 µM; with KM12 colon it was 3.68 µM. Moreover, the GI50 in the test with UO-31 renal is 3.01 µM; in the test on NCI-H460 lung, 2.44 µM; with SF-539 CNS, 4.32 µM; with M14 melanoma it was 4.42 µM. Further, the TGI in the test with A498 renal is 8.53 µM; in the test with CAKI-1 renal, more than 100 µM; with SN12C renal it was 4.63 µM; with A549 NSCLC, more than 100 µM; in the test with K-562 leukemia, more than 100 µM; with KM12 colon it was more than 100 µM. Besides, the TGI was 54.8 µM in the test on UO-31 renal, 5.53 µM in the test on NCI-H460 lung, 56.1 µM in the test with SF-539 CNS and more than 100 µM in the test on M14 melanoma.
Turning to `COCCOCCOCCOCCOC(=O)OC[n+]1ccc(NC(=NCCCCCCOc2ccc(Cl)cc2)NC#N)cc1`, the GI50 in the test on A498 renal is 1.28 µM; in the test on CAKI-1 renal, 3.3 µM; in the test on SN12C renal, less than 0.01 µM; with A549 NSCLC, 2.22 µM; in the test on K-562 leukemia, 4.58 µM; with KM12 colon, less than 0.0377 µM. In addition, the GI50 is 11.3 µM in the test with UO-31 renal, 0.124 µM with NCI-H460 lung, less than 0.01 µM with SF-539 CNS and 0.0409 µM in the test with M14 melanoma. Further, the TGI in the test on A498 renal stood at 15.4 µM; with CAKI-1 renal, 20.5 µM; in the test with SN12C renal, 15.7 µM; in the test on A549 NSCLC it was 19.2 µM; with K-562 leukemia, 20.5 µM; in the test with KM12 colon, 17.3 µM. Further, the TGI amounted to 24.1 µM with UO-31 renal, 19.2 µM with NCI-H460 lung, 13.7 µM in the test on SF-539 CNS and 14.7 µM with M14 melanoma.
In the case of `O=c1[nH]c2ccccc2n1C1CCN(CCCC(c2ccc(F)cc2)c2ccc(F)cc2)CC1`, the GI50 with A498 renal was 1.12 µM and 8.77 µM; in the test on CAKI-1 renal, 1.39 µM and 7.46 µM; in the test with SN12C renal it was 1.5 µM; in the test on A549 NSCLC, 1.48 µM and 7.32 µM; with K-562 leukemia, 1.88 µM; in the test on KM12 colon it was 1.76 µM and 6.97 µM. In addition, the GI50 in the test with UO-31 renal was 1.11 µM and 3.56 µM; in the test on NCI-H460 lung, 1.75 µM and 4.26 µM; in the test with SF-539 CNS it was 1.88 µM and 3.35 µM; in the test with M14 melanoma, 1.83 µM. Also, the TGI is 2.36 µM and 22.7 µM with A498 renal; 2.96 µM and 20.9 µM with CAKI-1 renal; 2.97 µM and 23.4 µM in the test with SN12C renal; 3.14 µM and 21.9 µM in the test on A549 NSCLC; 4.54 µM and 17.4 µM in the test on K-562 leukemia; 3.4 µM and 22.1 µM in the test on KM12 colon. The TGI with UO-31 renal is 2.44 µM and 18.1 µM; in the test with NCI-H460 lung, 3.4 µM and 12 µM; in the test on SF-539 CNS, 3.58 µM and 9.28 µM; in the test with M14 melanoma, 3.72 µM and 8.19 µM.
For the compound `N#CCNC(=O)c1ccc(-c2ccnc(Nc3ccc(N4CCOCC4)cc3)n2)cc1`, the GI50 in the test with A498 renal was 2.35 µM and 1.91 µM; in the test on CAKI-1 renal, 0.513 µM and 0.273 µM; in the test with SN12C renal, 2.73 µM and 0.992 µM; in the test on A549 NSCLC it was 4.47 µM and 1.75 µM; in the test on KM12 colon, 3.23 µM and 3.85 µM; in the test on UO-31 renal it was 1.1 µM and 0.36 µM. Also, the GI50 in the test on NCI-H460 lung was 2.5 µM and 1.36 µM; with SF-539 CNS, 2.29 µM and 1.14 µM; in the test with M14 melanoma, 4.47 µM and 4.29 µM. Further, the TGI in the test on A498 renal was 8.73 µM and 7.66 µM; with CAKI-1 renal, 3.72 µM and 3.03 µM; in the test with SN12C renal it was more than 100 µM; in the test on A549 NSCLC, > 10 µM and 12.4 µM; in the test with K-562 leukemia it was more than 100 µM; in the test on KM12 colon, more than 74 µM. Also, the TGI with UO-31 renal was 4.19 µM and 3.4 µM; in the test with NCI-H460 lung it was > 10 µM and 11.3 µM; with SF-539 CNS, > 10 µM and 10.4 µM; with M14 melanoma it was more than 100 µM.
On to `COc1ccc(-c2c3c(N)c4c(nc3nc3c2c(C)nn3-c2ccccc2)CCCC4)cc1`, for which the GI50 in the test with A498 renal is 11.9 µM; in the test with CAKI-1 renal it was 3.88 µM; in the test on SN12C renal, 3.72 µM; in the test with A549 NSCLC, 3.01 µM; in the test with K-562 leukemia it was 2.3 µM; with KM12 colon, 3.16 µM. In addition, the GI50 with UO-31 renal is 2.46 µM; in the test on NCI-H460 lung, 3.28 µM; in the test with SF-539 CNS it was 14.5 µM; in the test on M14 melanoma, 3.74 µM. Moreover, the TGI with A498 renal is 27.3 µM; with CAKI-1 renal, 15.9 µM; with SN12C renal, 16.1 µM; with A549 NSCLC it was 11 µM; with K-562 leukemia, 6.85 µM; in the test with KM12 colon, 10.8 µM. Also, the TGI is 11.5 µM in the test with UO-31 renal, 11.3 µM in the test on NCI-H460 lung, 29.2 µM in the test with SF-539 CNS and 13 µM in the test on M14 melanoma.
